For eleven compounds, AC50 and Ki results are on record in patent publication US20240067660A1, “MACROCYCLIC SPIROCYCLE DERIVATIVES AS MCL-1 INHIBITORS” (Janssen Pharmaceutica NV, priority 2019, published 2024).

Where two headings read alike, the source gives them in different places.

For one assay, the system named is MOLP8 cells. As to the kind of experiment: MOLP8 CellEvent Caspase-3/7 Green IncuCyte live-cell apoptosis assay. It is filed as cell-based, human. The protocol: (§1) MCL-1 is a regulator of apoptosis and is highly over-expressed in tumor cells that escape cell death. The assay evaluates the cellular potency of small-molecule compounds targeting regulators of the apoptosis pathway, primarily MCL-1, Bfl-1, Bcl-2, and other proteins of the Bcl-2 family. Protein-protein inhibitors disrupting the interaction of anti-apoptotic regulators with BH3-domain proteins initiate apoptosis.
Activation of the apoptotic pathway was measured using the CellEvent™ Caspase-3/7 Green ReadyProbes™ Reagent (Thermo Fisher C10423, C10723). This assay produces a green fluorescent stain in cells that enter the apoptosis pathway. CellEvent® Caspase-3/7 Green reagent is a four amino acid peptide (DEVD) conjugated to a nucleic acid-binding dye that is non-fluorescent when not bound to DNA. The CellEvent® Caspase-3/7 Green reagent is intrinsically non-fluorescent, as the DEVD peptide inhibits binding of the dye to DNA. Upon activation of caspase-3/7 in apoptotic cells, the DEVD peptide is cleaved and the free dye can bind DNA, generating a bright green fluorescence. The activation of Caspase-3 and Caspase-7 is downstream of inhibition of MCL-1 or other apoptosis inhibiting proteins in cell lines that are dependent on them.
The live-cell readout on the IncuCyte permits tracking over time of the Caspase activation. […] The IncuCyte readout also allows one to normalize for cell number, as the suspension cells are hard to distribute evenly.
Signals were measured every 2 h for a duration of 22 h. The ratio of the Caspase mask to the Confluence mask, per image, as raw data, was calculated and the kinetic trace for every well was exported to Genedata Screener for analysis.
In Genedata Screener values for 6 h, 12 h, and 22 h from the kinetic traces were extracted. The values were normalized against negative controls (untreated cells). A standard dose-response analysis was performed on the normalized data.
The following data was reported at each of the following three aforementioned time points: (a) The dose-response curve, (b) The qAC50 and qAC50 Mode, and (c) Max Activity.
Cells were maintained in culture medium containing 10% Heat Inactivated (HI) FBS, 2 mM L-Glutamine and 50 μg/mL Gentamycin phenol red free RPMI-1640. Cells were split at 0.4 million/mL twice a week.
On Day 1, plates containing individual wells with test compounds at 10 mM concentration, 150 nL per well. The final concentrations range from […] compound (and no compound control) and compounds were thawed at room temperature for 1 hour. 25 μl of prewarmed medium was added into each well by multidrop (column 1, 3-22, 24), followed by addition of DMSO control (0.6% DMSO) in column 2. The plate was sealed using Breathe-Easy® sealing membrane and shaken for 30 min at room temperature to dissolve the test compound(s) in medium. The plate was then kept in the incubator for 1 hour at 37° C., 5% CO2.
MOLP8 cells in medium at […] (20000/50 μl final in assay) were prepared with CellEvent™ Caspase-3/7 Green Detection Reagent at 4 μM (2 μM final in assay). Once prepared, the cells were added to the test compound plate in an amount of 20000 and the plate was immediately placed in the IncuCyte and imaging started using following settings: 10× objective, 2 s exposure time in green channel, interval of 2 h, acquisition stopped after 22 h.
For analysis in IncuCyte, a Basic Analysis protocol was defined to calculate the “confluence” and “caspase” areas from the “Phase” and “green” images, respectively, as follows: (a) Confluence: Segmentation Adjustment 1, Hole Fill 0, Adjust Size −2, No filters (b) Caspase: Top-Hat segmentation, Radius 10, Threshold 0.3 GCU, Edge Split On with sensitivity 0, Hole Fill 0, Adjust Size 1, and filter on a minimum Area of 20 μm^2. The analyzer is trained on a sufficient number of positive and negative control wells, as well as compound treated wells, verifying that the “confluence” layer detects both live and dead (condensed) cells. […]

For assay [1], the system named is MOLP-8 human multiple myeloma cell line. As to the kind of experiment: Caspase-Glo 3/7 assay in MOLP-8 cells. It is filed as cell-based. Conditions: Homo sapiens, MOLP-8, 2 h, Caspase-Glo 3/7, 2 hours incubation; averaged over all runs on all batches; read-out: MOLP8 AC50.
Description: as §1
The Caspase-Glo® 3/7 Assay is a luminescent assay that measures caspase-3 and -7 activities in purified enzyme preparations or cultures of adherent or suspension cells. The assay provides a proluminescent caspase-3/7 substrate, which contains the tetrapeptide sequence DEVD. This substrate is cleaved to release aminoluciferin, a substrate of luciferase used in the production of light. Addition of the single Caspase-Glo® 3/7 Reagent in an “add-mix-measure” format results in cell lysis, followed by caspase cleavage of the substrate and generation of a “glow-type” luminescent signal.
This assay uses the MOLP-8 human multiple myeloma cell line, which is sensitive to MCL-1 inhibition.
Cell cultures were maintained between 0.2 and 2.0×10^6 cells/mL. The cells were harvested by collection in 50 mL conical tubes. The cells were then pelleted at 500 g for 5 mins before removing supernatant and resuspension in fresh pre-warmed culture medium. The cells were counted and diluted as needed.
The assay reagent was prepared by transferring the buffer solution to the substrate vial and mixing. The solution may be stored for up to 1 week at 4° C. with negligible loss of signal.
Compounds were delivered in assay-ready plates (Proxiplate) and stored at −20° C. Assays always include 1 reference compound plate containing reference compounds. The plates were spotted with 40 nL of compounds (0.5% DMSO final in cells; serial dilution; 30 μM highest conc. 1/3 dilution, 10 doses, duplicates). The compounds were used at room temperature and 4 μL of pre-warmed media was added to all wells except column 2 and 23. The negative control was prepared by adding 1% DMSO in media. The positive control was prepared by adding the appropriate positive control compound in final concentration of 60 μM in media. The plate was prepared by adding 4 μL negative control to column 23, 4 μL positive control to column 2 and 4 μL cell suspension to all wells in the plate. The plate with cells was then incubated at 37° C. for 2 hours. The assay signal reagent is the Caspase-Glo solution described above, and 8 μL was added to all wells. The plates were then sealed and measured after 30 minutes.
The activity of a test compound was calculated as percent change in apoptosis induction as follows: […]

The target of assay [2] is Myeloid Cell Leukemia 1(Mcl-1) (Homo sapiens (Human), UniProt Q07820). As to the kind of experiment: Terbium labeled Mcl-1 HTRF binding assay with Cy5-labeled BIM BH3 peptide. The settings on record: first table; [L]=8 nM, Kd=10 nM; before recalibration of the equipment. The protocol:
Terbium labeled Myeloid Cell Leukemia 1(Mcl-1) homogeneous time-resolved fluorescence (HTRF) binding assay utilizing the BIM BH3 peptide (H2N-(C/Cy5Mal) WIAQELRRIGDEFN-OH) as the binding partner for Mcl-1.
This assay evaluated inhibition of the BH3 domain: Mcl-1 interaction by measuring the displacement of Cy5-labeled BIM BH3 peptide (H2N—(C/Cy5Mal) WIAQELRRIGDEFN-OH) in the HTRF assay format.
The following assay and stock buffers were prepared for use in the assay: (a) Stock buffer: 10 mM Tris-HCl, pH=7.5+150 mM NaCl, filtered, sterilized, and stored at 4° C.; and (b) 1× assay buffer, where the following ingredients were added fresh to stock buffer: 2 mM dithiothreitol (DTT), 0.0025% Tween-20, 0.1 mg/mL bovine serum albumin (BSA). The 1×Tb-Mcl-1+Cy5 Bim peptide solution was prepared by diluting the protein stock solution using the 1× assay buffer (b) to 25 pM Tb-Mcl-1 and 8 nM Cy5 Bim peptide.
Using the Acoustic ECHO, 100 nL of 100× test compound(s) were dispensed into individual wells of a white 384-well Perkin Elmer Proxiplate, for a final compound concentration of lx and final DMSO concentration of 1%. Inhibitor control and neutral control (NC, 100 nL of 100% DMSO) were stamped into columns 23 and 24 of assay plate. Into each well of the plate was then dispensed 10 μL of the 1×Tb-Mcl-1+Cy5 Bim peptide solution. The plate was centrifuged with a cover plate at 1000 rpm for 1 minute, then incubated for 60 minutes at room temperature with plates covered.
The TR-FRET signal was read on an BMG PHERAStar FSX MicroPlate Reader at room temperature using the HTRF optic module (HTRF: excitation: 337 nm, light source: laser, emission A: 665 nm, emission B: 620 nm, integration start: 60 μs, integration time: […]).
The BMG PHERAStar FSX MicroPlate Reader was used to measure fluorescence intensity at two emission wavelengths—665 nm and 620 nm—and report relative fluorescence units (RFU) for both emissions, as well as a ratio of the emissions (665 nm/620 nm)*10,000. The RFU values were normalized to percent inhibition as follows:
% inhibition=((NC−IC)−(compound−IC))/(NC−IC))*100
where IC (inhibitor control, low signal)=mean signal of 1×Tb-MCl-1+Cy5 Bim peptide+inhibitor control or 100% inhibition of Mcl-1; NC (neutral control, high signal)=mean signal 1×Tb-MCl-1+Cy5 Bim peptide with DMSO only or 0% inhibition An 11-point dose response curve was generated to determine IC50 values (using GenData) based on the following equation:
Y=Bottom+(Top−Bottom)/(1+10^((IogIC50−X)*HillSlope))
where Y=% inhibition in the presence of X inhibitor concentration; Top=100% inhibition derived from the IC (mean signal of Mcl-1+inhibitor control); Bottom=0% inhibition derived from the NC (mean signal of Mcl-1+DMSO); Hillslope=Hill coefficient; and IC50=concentration of compound with 50% inhibition in relation to top/neutral control (NC).
In this assay [L]=8 nM and Kd=10 nM
In general terms: TR-FRET usually uses a lanthanide donor and a delayed reading to cut background.

Setting [3] is: 6 h, read-out: MOLP8 Caspase 3/7 AC50 at 6 h.
Where [4] appears, read: 12 h, read-out: MOLP8 Caspase 3/7 AC50 at 12 h.
[5] abbreviates: 22 h, read-out: MOLP8 Caspase 3/7 AC50 at 22 h.
Setting [6] is: Homo sapiens, MOLP-8, 6 h, 6 h, read-out: MOLP8 Caspase 3/7 AC50 at 6 h.
The mark [7] stands for this setting: Homo sapiens, MOLP-8, 12 h, 12 h, read-out: MOLP8 Caspase 3/7 AC50 at 12 h.
[8] abbreviates: Homo sapiens, MOLP-8, 22 h, 22 h, read-out: MOLP8 Caspase 3/7 AC50 at 22 h.

Chain of Myeloid Cell Leukemia 1(Mcl-1) (Q07820 whole entry): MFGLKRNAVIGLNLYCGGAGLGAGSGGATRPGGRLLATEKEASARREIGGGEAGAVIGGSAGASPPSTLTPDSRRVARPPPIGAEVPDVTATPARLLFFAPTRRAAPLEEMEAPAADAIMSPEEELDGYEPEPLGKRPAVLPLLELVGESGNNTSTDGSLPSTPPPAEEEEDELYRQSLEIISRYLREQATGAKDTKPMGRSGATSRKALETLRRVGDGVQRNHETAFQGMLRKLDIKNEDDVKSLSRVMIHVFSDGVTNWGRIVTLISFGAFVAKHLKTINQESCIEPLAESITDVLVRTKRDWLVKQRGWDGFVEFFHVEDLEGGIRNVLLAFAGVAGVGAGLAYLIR

On to `C[C@@H]1[C@@H](C)C/C=C/CN2CC[C@H]2CN2CC3(CCOc4cc(Cl)ccc43)COc3ccc(cc32)C(=O)NS1(=O)=O` (single isomer, unassigned) [Compound 5], for which the AC50 in the assay with MOLP8 cells (setting [3]) stood at 6310 nM; in the assay on MOLP8 cells (setting [4]) it was 6600 nM; in the assay with MOLP8 cells (setting [5]), 5750 nM; in assay [1], 3740 nM.
In the case of `C[C@@H]1[C@@H](C)C/C=C/CN2CC[C@H]2CN2CC3(CCOc4cc(Cl)ccc43)COc3ccc(cc32)C(=O)NS1(=O)=O` (single isomer, unassigned) [Compound 6], the AC50 with MOLP8 cells (setting [3]), in the assay with MOLP8 cells (setting [4]) and with MOLP8 cells (setting [5]) was greater than 30000 nM in each case.
For `C[C@@H]1[C@@H](C)C/C=C(/F)CN2CC[C@H]2CN2C[C@@]3(CCCc4cc(Cl)ccc43)COc3ccc(cc32)C(=O)NS1(=O)=O` [Compound 1], the AC50 in the assay on MOLP8 cells (setting [6]) is 7760 nM; in the assay on MOLP8 cells (setting [7]), roughly 10500 nM; in the assay on MOLP8 cells (setting [8]), 7940 nM.
As to `C[C@@H]1[C@@H](C)C/C=C(\F)CN2CC[C@H]2CN2C[C@@]3(CCCc4cc(Cl)ccc43)COc3ccc(cc32)C(=O)NS1(=O)=O` [Compound 2], the AC50 with MOLP8 cells (setting [6]) is roughly 970 nM; with MOLP8 cells (setting [7]) it was roughly 1050 nM; in the assay on MOLP8 cells (setting [8]) it was 1200 nM; in assay [1] it was 692 nM.
The term Ki denotes the dissociation constant of the complex between target and ligand, obtained from inhibition or displacement. In the case of `C[C@@H]1[C@@H](C)C/C=C/CN2CC[C@H]2CN2C[C@@]3(CCCc4cc(Cl)ccc43)COc3ccc(cc32)C(=O)NS1(=O)=O` [Compound 3], the AC50 in the assay with MOLP8 cells (setting [6]) was determined as 2400 nM; with MOLP8 cells (setting [7]), 2690 nM; in the assay with MOLP8 cells (setting [8]), 3090 nM. The compound further showed a Ki in assay [2] of 3.14 nM.
In the same order, the values of `COCCOCCOC[C@H]1/C(F)=C/C[C@H](C)[C@@H](C)S(=O)(=O)NC(=O)c2ccc3c(c2)N(C[C@@H]2CCN21)C[C@@]1(CCCc2cc(Cl)ccc21)CO3` [Compound 14] are 300 nM, 350 nM, 370 nM and 0.34 nM.
In the same order, the values of `COC[C@H]1/C(F)=C/C[C@H](C)[C@@H](C)S(=O)(=O)NC(=O)c2ccc3c(c2)N(C[C@@H]2CCCN21)C[C@@]1(CCCc2cc(Cl)ccc21)CO3` [Compound 20] are 810 nM, 700 nM, 610 nM and 0.91 nM.
Take `C[C@@H]1[C@@H](C)C/C=C(\F)[C@H](COCCN2CCOCC2)N2CC[C@H]2CN2C[C@@]3(CCCc4cc(Cl)ccc43)COc3ccc(cc32)C(=O)NS1(=O)=O` [Compound 30]: the figures for the AC50 in the assay on MOLP8 cells (setting [6]), in the assay with MOLP8 cells (setting [7]) and in the assay with MOLP8 cells (setting [8]) were 630 nM, 560 nM and 620 nM, respectively.
For `C[C@@H]1[C@@H](C)C/C=C(\F)[C@H](CN2CCN3CCN(C)C[C@@H]3C2)N2CC[C@H]2CN2C[C@@]3(CCCc4cc(Cl)ccc43)COc3ccc(cc32)C(=O)NS1(=O)=O` [Compound 32] the same measures were 1100 nM, 960 nM and 960 nM.
In the same order, the values of `C[C@@H]1[C@@H](C)C/C=C(\F)[C@H](CN2CCOCC2)N2CC[C@H]2CN2C[C@@]3(CCCc4cc(Cl)ccc43)COc3ccc(cc32)C(=O)NS1(=O)=O` [Compound 33] are 330 nM, 340 nM and 560 nM.
In the case of `COCCOCC1(COCCOC)/C(F)=C/C[C@H](C)[C@@H](C)S(=O)(=O)NC(=O)c2ccc3c(c2)N(C[C@@H]2CCN21)C[C@@]1(CCCc2cc(Cl)ccc21)CO3` [Compound 41], the AC50 in assay [1] was 152 nM.
